Laboratory results as given in patent US7754715B2, “Sustained-release oral molsidomine composition for treating atherosclerosis” (Therabel Pharmaceuticals Limited, priority 2004, dated 2010).
“Also recorded” adds a separate entry of the source.

Columns and labels:
[1] = system: ICAM-1s (circulating soluble ICAM-1); experiment: Circulating soluble ICAM-1 in serum (ELISA) in long-term clinical study of patients with stable angina pectoris; format: in vivo, human; conditions: for concentration of ICAM-1s, Mean ± SD: 4 weeks double-blind
Protocol: This study comprised 3 consecutive phases: • a 7-day pre-study under placebo; • a 4-week double-blind and double-placebo randomized crossover study during which the patients received alternately (2×2 weeks) a molsidomine-based formulation containing an 8 mg dose, currently marketed in Belgium under the name Corvatard® (2 daily dosage units), and a molsidomine-based formulation containing a 16 mg dose, effective over 24 hours, currently marketed in Belgium under the name Coruno® (1 daily dosage unit); and • a 12-month study during which the 172 patients received a molsidomine-based formulation containing a 16 mg dose, currently marketed in Belgium under the name Coruno®. Also, and of greatest importance, the concentrations of ICAM-1s were measured after each of the three phases of the study, the first measurement constituting the baseline. More precisely, the concentrations of ICAM-1s were measured as follows: Blood samples (5 ml) were taken in non-heparinized tubes. These samples were kept at room temperature and then centrifuged. The serum was separated off and immediately frozen at −20° C. until required for analysis. The circulating ICAM-1 was measured using a commercially available ELISA test (R&D Systems Europe).

[2] = Weekly frequency of angina attacks and of consumption of s.l. ISDN 5 mg tablets in clinical study; format: in vivo, human
Protocol: This study comprised 3 consecutive phases: • a 7-day pre-study under placebo; • a 4-week double-blind and double-placebo randomized crossover study during which the patients received alternately (2×2 weeks) a molsidomine-based formulation containing an 8 mg dose, currently marketed in Belgium under the name Corvatard® (2 daily dosage units), and a molsidomine-based formulation containing a 16 mg dose, effective over 24 hours, currently marketed in Belgium under the name Coruno® (1 daily dosage unit); and • a 12-month study during which the 172 patients received a molsidomine-based formulation containing a 16 mg dose, currently marketed in Belgium under the name Coruno®. It is pointed out that, during the second phase of the study, the concomitant use of other antianginal drugs was prohibited with the exception of sublingual (s.l.) isosorbide dinitrate (ISDN) 5 mg in tablet form, which could be consumed ad libitum to alleviate the symptoms of anginal pain. In the course of this study, the weekly frequency of angina attacks and the weekly frequency of consumption of s.l. ISDN 5 mg tablets were noted.

[3] = 4-week treatment, versus baseline

With CCOC(=O)[N-]c1cn(N2CCOCC2)n[o+]1 [molsidomine] the “effect on the levels of circulating ICAM-1s” value ([1]; 4-week treatment (16 mg o.a.d. or 8 mg b.i.d.)) was “no effect; also recorded: did not cause any effect”, the “concentration of ICAM-1s, Mean ± SD” value ([1]; alcohol <1 glass/day, N=161) was 276 ± 89 ng/mL and the “concentration of ICAM-1s, Mean ± SD” value ([1]; alcohol ≧1 glass/day, N=11) was 242 ± 38 ng/mL. The “concentration of ICAM-1s, Mean ± SD” value ([1]; all patients, N=172) was 274 ± 87 ng/mL, the “concentration of ICAM-1s, Mean ± SD” value ([1]; both concomitant drugs, N=20) was 247 ± 45 ng/mL and the “concentration of ICAM-1s, Mean ± SD” value ([1]; concomitant beta-blockers, N=30) was 281 ± 58 ng/mL. For the same compound, the “concentration of ICAM-1s, Mean ± SD” value ([1]; concomitant statins, N=38) was 277 ± 70 ng/mL, the “concentration of ICAM-1s, Mean ± SD” value ([1]; former smokers, N=59) was 277 ± 67 ng/mL and the “concentration of ICAM-1s, Mean ± SD” value ([1]; men, N=117) was 264 ± 58 ng/mL. The “concentration of ICAM-1s, Mean ± SD” value ([1]; no concomitant medication, N=78) was 276 ± 112 ng/mL, the “concentration of ICAM-1s, Mean ± SD” value ([1]; non-smokers, N=81) was 262 ± 74 ng/mL and the “concentration of ICAM-1s, Mean ± SD” value ([1]; smokers, N=32) was 297 ± 138 ng/mL. The “concentration of ICAM-1s, Mean ± SD” value ([1]; women, N=55) was 293 ± 128 ng/mL, the “consumption of sublingual nitro compounds” value [2, 3] was “decreased” and the “number of angina attacks” value [2, 3] was “decreased”. For the same compound, the antianginal effects ([2]; after one year) was “maintained or even improved”.
